Measurements published in patent US20090258951A1, “Use of vanillyl alcohol for the treatment of Parkinson's disease” (Red Pharma & Biotech Research Corporation, priority 2008, published 2009).

What was measured:
[1] = system: rat with right-side substantia nigra destroyed by 6-OHDA (6-hydroxydopamine); assay: Amphetamine-induced rotation of rat with substantia nigra destroyed by 6-OHDA (animal gyroscope); type: in vivo
Procedure: (§1) After affixing rear head of a rat with a three-dimensional tightener and anaesthetizing the rat, then inject substantia nigra located at the right side of brain of the rat with 6-OHDA (6-hydroxydopamine) to destroy substantia nigra to make the rat produce tremor, rigidity, bradykinesia etc. Next, after the rat returns to and stays in room for 2 weeks, it is given amphetamine (5 mg/1000 g) via belly injection and then starts rotating round an animal gyroscope, wherein the number of rotations will be recorded (if the number of rotations exceeds 300 rotations per an hour, it means that the amphetamine has effected on the rat).
The substantia nigra of the brain of the rat is a tissue to release dopamine so that the injected amphetamine may accelerate the substantia nigra to release a large amount of dopamine. However, the substantia nigra located at the right side of brain of the rat has been destroyed by the 6-OHDA (6-hydroxydopamine) already unable to release dopamine any more, although the rat is injected with amphetamine for stimulation but the left side of body movement which is controlled by the right side of brain remains rigidity and bradykinesia. On the other hand, the substantia nigra located at the left side of brain of the rat is in normal condition without any injury so hyperkinesia occurs on the right side of body movement which is controlled by the left side of brain due to acceleration of amphetamine, that's why the rat keeps rotating for right turn (clockwise) and even uncontrollably.
(§2) With reference to FIG. 4, the rat is given with amphetamine about 1 mg per 1 kg of body weight thereof via belly injection and rotates round an animal gyroscope on 28th, 36th, 43rd and 52nd day respectively for right turn (clockwise) and left turn (counterclockwise), in which the number of rotations will be recorded.
as §2, with “to FIG. 5, the rat” for “to FIG. 4, the rat”, “injection and further provided with Vanillyl alcohol about 30 mg. Next, the rat rotates round” for “injection and rotates round”

[2] = system: rat with right-side substantia nigra destroyed by 6-OHDA (6-hydroxydopamine); type: in vivo
Procedure: as §1
The substantia nigra of the brain of the rat is a tissue to release dopamine so that the injected amphetamine may accelerate the substantia nigra to release a large amount of dopamine. […]
With reference to FIG. 7, the rat is given with L-DOPA about 50 mg per 1 kg of body weight thereof via belly injection and further provided with Vanillyl alcohol about 30 mg. […] Next, the rat rotates round an animal gyroscope on 28th, 36th, and 52nd day respectively for right turn (clockwise) and left turn (counterclockwise), in which the number of rotations will be recorded.

SMILES	number of rotations for right turn (clockwise) ([1]; amphetamine about 1 mg per 1 kg via belly injection plus Vanillyl alcohol about 30 mg, days 28, 36, 43, 52, effect since 43rd day, 52nd day most apparent (FIG. 5))	behavioral asymmetry between right side and left side ([1]; amphetamine about 1 mg per 1 kg via belly injection plus Vanillyl alcohol about 30 mg, effect since 43rd day, 52nd day most apparent (FIG. 5))	movements of the rat ([2]; L-DOPA about 50 mg per 1 kg via belly injection plus Vanillyl alcohol about 30 mg, benserazide 30 mg per 1 kg 30 minutes before, days 28, 36, 52 (FIG. 7))	behavioral unbalance between right and left sides induced by L-DOPA ([2]; Vanillyl alcohol about 30 mg in combination with L-DOPA about 50 mg per 1 kg, benserazide pre-treatment (FIG. 7))	number of rotations for left turn (counterclockwise) ([1]; amphetamine about 1 mg per 1 kg via belly injection alone, days 28, 36, 43, 52, symptom since 36th day (FIG. 4))	behavioral asymmetry between right side and left side ([1]; amphetamine about 1 mg per 1 kg via belly injection alone, symptom since 36th day (FIG. 4))
COc1cc(CO)ccc1O [Vanillyl alcohol, 4-hydroxy-3-methoxy-benzyl alcohol]	decreased gradually	decreased apparently	almost normal	inhibit		
CC(N)Cc1ccccc1 (stereo not drawn) [amphetamine, reference compound]					decreased gradually	increased apparently
